A word on the IC50: it is the midpoint of a concentration-inhibition curve. Usually half-life stands for the time in which the quantity being followed falls by half. Read a low half-life as rapid decline. A word on the Ki: it is a dissociation constant, usually derived from enzyme kinetics or from competition with a known ligand. One may read the Cmax as the highest concentration seen after dosing. In general, Tmax refers to the time at which the peak concentration occurs.

Experimental findings from patent US7101878B1 (Agouron Pharmaceuticals, Inc., priority 1998, dated 2006) are described below.

In one series the target is T1, rat GnRH receptor (Rattus norvegicus, UniProt P30969).
T1 sequence (P30969 1-327): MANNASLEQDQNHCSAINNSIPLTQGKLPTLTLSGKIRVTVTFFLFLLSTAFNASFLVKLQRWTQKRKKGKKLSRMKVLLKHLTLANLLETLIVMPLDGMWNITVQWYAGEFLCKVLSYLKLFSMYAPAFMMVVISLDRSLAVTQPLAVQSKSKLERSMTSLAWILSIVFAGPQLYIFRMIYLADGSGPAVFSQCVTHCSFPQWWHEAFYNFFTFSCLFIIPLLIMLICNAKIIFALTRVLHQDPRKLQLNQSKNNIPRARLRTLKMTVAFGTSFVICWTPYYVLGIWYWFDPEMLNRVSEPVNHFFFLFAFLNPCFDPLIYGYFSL
Put plainly: Radioligand binding, 125I-GnRH-A, rat pituitary membranes. Also on record: membranes were prepared from rat pituitary; from tissue; host or cells: rat pituitary. In a few lines: (§1)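 Bound label captured on 0.1% polyethyleneimine-treated GF/C filters, washed three times with PBS, counted. IC50 derived; identical set-up for every species.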

The target of another series is T2, NPY Y1 (Homo sapiens, UniProt P25929).
T2 sequence (P25929 1-384): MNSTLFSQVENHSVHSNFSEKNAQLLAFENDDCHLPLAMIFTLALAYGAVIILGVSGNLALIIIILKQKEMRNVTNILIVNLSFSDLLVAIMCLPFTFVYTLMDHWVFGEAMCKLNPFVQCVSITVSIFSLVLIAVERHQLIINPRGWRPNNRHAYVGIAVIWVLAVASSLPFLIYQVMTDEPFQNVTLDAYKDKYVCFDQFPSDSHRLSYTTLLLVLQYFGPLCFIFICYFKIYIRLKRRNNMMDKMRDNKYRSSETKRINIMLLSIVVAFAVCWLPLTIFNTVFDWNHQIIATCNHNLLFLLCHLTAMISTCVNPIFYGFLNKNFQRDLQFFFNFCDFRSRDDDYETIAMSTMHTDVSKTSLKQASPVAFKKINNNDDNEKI
In words: Selectivity: NPY Y1.

For the next series, the target named is T3, human GnRH receptor (Homo sapiens, UniProt P30968).
T3 construct: expressed in transfected cells; host or cells: HEK 293 (hGnRH-R/293, from Dr. Stuart Sealfon)
T3 sequence (P30968 1-328): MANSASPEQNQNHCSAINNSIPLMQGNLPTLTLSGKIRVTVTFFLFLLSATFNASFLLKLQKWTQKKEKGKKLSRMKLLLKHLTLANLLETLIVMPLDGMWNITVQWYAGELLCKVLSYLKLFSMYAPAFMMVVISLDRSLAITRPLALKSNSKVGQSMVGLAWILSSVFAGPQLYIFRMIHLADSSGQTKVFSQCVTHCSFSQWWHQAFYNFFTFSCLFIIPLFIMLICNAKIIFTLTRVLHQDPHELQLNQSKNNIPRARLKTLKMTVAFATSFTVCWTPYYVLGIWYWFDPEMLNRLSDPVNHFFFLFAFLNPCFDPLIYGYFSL
Put plainly: Radioligand binding, 125I-GnRH-A displacement, membranes of HEK 293 cells with human GnRH receptor. In a few lines: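 Bound tracer was separated by filtration through polyethyleneimine-soaked GF/C filters and counted by liquid scintillation. IC50 from curve fitting; other species were tested under the same conditions.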

The nature of series [1]: Pharmacokinetic studies / bioavailability in rats. Type of series: in vivo, rat. To be noted: rat male; for half-life / Cmax / Tmax: male, rat, plasma; for half-life: iv, 10 mg/kg; for Cmax / Tmax: po, 20 mg/kg.
For another series, the target named is T4, mouse GnRH receptor (Mus musculus, UniProt Q01776).
T4 construct: expressed in transfected cells; host or cells: 293 cells
T4 sequence (Q01776 1-327): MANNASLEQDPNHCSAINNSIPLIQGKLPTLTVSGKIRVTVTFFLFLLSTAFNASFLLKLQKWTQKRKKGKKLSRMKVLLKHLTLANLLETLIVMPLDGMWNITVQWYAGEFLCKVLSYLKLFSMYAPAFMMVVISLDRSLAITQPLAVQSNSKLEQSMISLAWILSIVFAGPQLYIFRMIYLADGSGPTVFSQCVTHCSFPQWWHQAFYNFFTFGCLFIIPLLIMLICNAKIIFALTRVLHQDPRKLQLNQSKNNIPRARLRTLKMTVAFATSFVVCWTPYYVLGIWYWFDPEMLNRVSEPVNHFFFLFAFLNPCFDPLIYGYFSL
In words: Radioligand binding, 125I-GnRH-A, 293 cells expressing mouse GnRH receptors. In a few lines:
as §1

Where [2] appears, read: means ± SE of at least three experiments performed in duplicate, read-out: Human IC50.
Where [3] appears, read: second value marked * (mostly in parentheses), asterisk not explained, read-out: hGnRH IC50, value marked *.
The mark [4] stands for this setting: p.o. 20 mg/kg, vehicle per footnote (DMSO/cremophor/saline).

Read-outs that look alike come from different tables or passages of the source.

In the case of `Cc1cnc(CNC(=O)c2ccc(Cc3cc4c(cc3C)C(C)(C)CCC4(C)C)o2)cn1` [Compound 13], the IC50 on rat GnRH receptor (means ± SE of at least three experiments performed in duplicate, read-out: Rat IC50) was 60 ± 8 nM; on rat GnRH receptor (read-out: rGnRH IC50) it was 60 nM; at NPY Y1, more than 10000 nM; at human GnRH receptor (setting [2]), 110 ± 20 nM; on human GnRH receptor (read-out: hGnRH IC50) it was 110 nM; on human GnRH receptor (setting [3]), 40 nM. For the same compound, the IC50 on mouse GnRH receptor (means ± SE of at least three experiments performed in duplicate, read-out: Mouse IC50) was found to be 120 ± 20 nM; on mouse GnRH receptor (read-out: mGnRH IC50) it was 120 nM. In series [1], the half-life was 1.5 h.

Regarding `COc1cccc(OC)c1NC(=O)c1ccc(Cc2cc3c(cc2C)C(C)(C)CCC3(C)C)o1` [Compound 20], the IC50 was 5 nM at rat GnRH receptor (read-out: rGnRH IC50); more than 10000 nM against NPY Y1; 8 ± 0.9 nM on human GnRH receptor (setting [2]); 8 nM at human GnRH receptor (read-out: hGnRH IC50); 20 nM at mouse GnRH receptor (read-out: mGnRH IC50). Further, at NPY Y1, the Ki is more than 10000 nM. This compound displayed a half-life in series [1] of 0.867 h. The compound also showed a Cmax in series [1] (setting [4]) of 200 nM. In addition, the Tmax in series [1] (setting [4]) amounted to 1 h.

As to `Cc1cc2c(cc1Cc1ccc(C(=O)NCc3nc4ccccc4[nH]3)o1)C(C)(C)CCC2(C)C` [Compound 48], the IC50 on rat GnRH receptor (read-out: rGnRH IC50) is 6 nM; at NPY Y1 it was more than 10000 nM; on human GnRH receptor (read-out: hGnRH IC50), 50 nM; on human GnRH receptor (setting [3]), 40 nM; at mouse GnRH receptor (read-out: mGnRH IC50), 10 nM. The same compound had a half-life in series [1] of 1.1 h. Also, the Cmax in series [1] (setting [4]) came out at 330 nM. For the same compound, the Tmax in series [1] (setting [4]) came to 1.5 h. Besides, the Fp.o. in series [1] (setting [4]) is recorded as 4% (20 mg/kg)^1.
